The record followed here is patent US20120095036A1, “NOVEL SUBSTITUTED INDAZOLE AND AZA-INDAZOLE DERIVATIVES AS GAMMA SECRETASE MODULATORS” (priority 2009, published 2012).

Structures are written as SMILES.

In series [1] the test system is Aβ42. Briefly: Method 2: Aβ42 Alphalisa on supernatant of SKNBE2 cells carrying APP 695 wild type. The series is classed as cell-based. The conditions noted are these: Homo sapiens, SKNBE2 cells APP 695 wild type, overnight. The method, then: (§1) Screening was carried out using SKNBE2 cells carrying the APP 695—wild type, grown in Dulbecco's Modified Eagle's Medium/Nutrient mixture F-12 (DMEM/NUT-mix F-12) (HAM) provided by Invitrogen (cat no. 10371-029) containing 5% Serum/Fe supplemented with 1% non-essential amino acids, 1-glutamine 2 mM, Hepes 15 mM, penicillin 50 U/ml (units/ml) en streptomycin 50 μg/ml. Cells were grown to near confluency.
(§2) The screening was performed using a modification of the assay as described in Citron et al (1997) Nature Medicine 3: 67. Briefly, cells were plated in a 384-well plate at 10^4 cells/well in Ultraculture (Lonza, BE12-725F) supplemented with 1% glutamine (Invitrogen, 25030-024), 1% non-essential amino acid (NEAA), penicillin 50 U/ml en streptomycin 50 μg/ml in the presence of test compound at different test concentrations. The cell/compound mixture was incubated overnight at 37° C., 5% CO2, The next day the media were assayed by two sandwich immuno-assays, for Aβ42 and Aβtotal.
(§3) Aβtotal and Aβ42 concentrations were quantified in the cell supernatant using the Aphalisa technology (Perkin Elmer). Alphalisa is a sandwich assay using biotinylated antibody attached to streptavidin coated donorbeads and antibody conjugated to acceptor beads. In the presence of antigen, the beads come into close proximity. The excitation of the donor beads provokes the release of singlet oxygen molecules that trigger a cascade of energy transfer in the acceptor beads, resulting in light emission. To quantify the amount of Aβ42 in the cell supernatant, monoclonal antibody specific to the C-terminus of Aβ42 (JRF/cAβ42/26) was coupled to the receptor beads and biotinylated antibody specific to the N-terminus of AB (JRF/AβN/25) was used to react with the donor beads. To quantify the amount of Aβtotal in the cell supernatant, monoclonal antibody specific to the N-terminus of AB (JRF/AβN/25) was coupled to the receptor beads and biotinylated antibody specific to the mid region of Aβ (biotinylated 4G8) was used to react with the donor beads.
(§4) To obtain the values reported in Table 3b, the data were calculated as percentage of the maximum amount of amyloid Beta 42 measured in the absence of the test compound. The sigmoidal dose response curves were analyzed using non-linear regression analysis with percentage of the control plotted against the log concentration of the compound. A 4-parameter equation was used to determine the IC50.

Series [2] concerns Aβtotal. Briefly: Method 2: Aβtotal Alphalisa on supernatant of SKNBE2 cells carrying APP 695 wild type. It is filed as cell-based. Particulars: Homo sapiens, SKNBE2 cells APP 695 wild type, overnight. Here is the method:
as §1, §2, §3, §4

Series [3] has as its system Aβ42. Briefly: Method 1: Aβ42 sandwich ELISA on media of SKNBE2 cells carrying APP 695 wild type (γ-secretase-modulating activity). It is filed as cell-based. Particulars: Homo sapiens, SKNBE2 cells APP 695 wild type, 18 hours. Here is the method: (§5) Screening was carried out using SKNBE2 cells carrying the APP 695—wild type, grown in Dulbecco's Modified Eagle's Medium/Nutrient mixture F-12 (DMEM/NUT-mix F-12) (HAM) provided by Gibco (cat no. 31330-38) containing 5% Serum/Fe supplemented with 1% non-essential amino acids. Cells were grown to near confluency.
(§6) The screening was performed using the assay as described in Citron et al (1997) Nature Medicine 3: 67. Briefly, cells were plated in a 96-well plate at about 10^5 cells/ml one day prior to addition of compounds. Compounds were added to the cells in Ultraculture (Lonza, BE12-725F) supplemented with 1% glutamine (Invitrogen, 25030-024) for 18 hours. The media were assayed by two sandwich ELISAs, for Aβ42 and Aβtotal. Toxicity of the compounds was assayed by WST-1 cell proliferation reagent (Roche, 1 644 807) according to the manufacturer's protocol.
To quantify the amount of Aβ42 in the cell supernatant, commercially available Enzyme-Linked-Immunosorbent-Assay (ELISA) kits were used (Innotest® β-Amyloid(1-42), Innogenetics N.V., Ghent, Belgium). The Aβ42 ELISA was performed essentially according to the manufacturer's protocol. Briefly, the standards (dilutions of synthetic A131-42) were prepared in polypropylene Eppendorf with final concentrations of 8000 down to […] (½ dilution step). Samples, standards and blanks (100 μl) were added to the anti-Aβ42-coated plate supplied with the kit (the capture antibody selectively recognizes the C-terminal end of the antigen). The plate was allowed to incubate 3 h at 25° C. in order to allow formation of the antibody-amyloid complex. Following this incubation and subsequent wash steps a selective anti-A13-antibody conjugate (biotinylated 3D6) was added and incubated for a minimum of 1 hour in order to allow formation of the antibody-Amyloid-antibody-complex. After incubation and appropriate wash steps, a Streptavidine-Peroxidase-Conjugate was added, followed 30 minutes later by an addition of 3,3′,5,5′-tetramethylbenzidine (TMB)/peroxide mixture, resulting in the conversion of the substrate into a coloured product. This reaction was stopped by the addition of sulfuric acid (0.9 N) and the colour intensity was measured by means of photometry with an ELISA-reader with a 450 nm filter.
(§7) To obtain the values reported in Table 3a, the sigmoidal dose response curves were analysed by computerised curve-fitting, with percent of inhibition plotted against compound concentration. A 4-parameter equation (model 205) in XLfit was used to determine the IC50. The top and the bottom of the curve were fixed to 100 and 0, respectively, and the hill slope was fixed to 1. The IC50 represents the concentration of a compound that is required for inhibiting a biological effect by 50% (Here, it is the concentration where Aβ peptide level is reduced by 50%).

For series [4], the system named is Aβtotal. Briefly: Method 1: Aβtotal sandwich ELISA on media of SKNBE2 cells carrying APP 695 wild type. It is filed as cell-based. The conditions noted are these: Homo sapiens, SKNBE2 cells APP 695 wild type, 18 hours. Here is the method: as §5, §6
To quantify the amount of Aβtotal in the cell supernatant, samples and standards were added to a 6E10-coated plate. The plate was allowed to incubate overnight at 4° C. in order to allow formation of the antibody-amyloid complex. Following this incubation and subsequent wash steps a selective anti-AB-antibody conjugate (biotinylated 4G8) was added and incubated for a minimum of 1 hour in order to allow formation of the antibody-Amyloid-antibody-complex. After incubation and appropriate wash steps, a Streptavidine-Peroxidase-Conjugate was added, followed 30 minutes later by an addition of Quanta Blu fluorogenic peroxidase substrate according to the manufacturer's instructions (Pierce Corp., Rockford, Il).
as §7

The compound `Cc1ncn(-c2ccc(Nc3cccc4c(C)n(-c5ccc(F)cc5F)nc34)cc2F)n1` [Compound 23, 2-(2,4-difluorophenyl)-N-[3-fluoro-4-(3-methyl-1H-1,2,4-triazol-1-yl)phenyl]-3-methyl-2H-indazol-7-amine] gave a melting point of 146.9 °C. Moreover, the IC50 in the series on Aβ42 [1] was found to be 724 nM. The compound further showed an IC50 in the series with Aβtotal [2] of more than 10000 nM. The compound further yielded an IC50 in the series on Aβ42 [3] of 1040 nM.
`COc1cccc(-n2nc3c(Nc4ccc(-c5cnc(C)o5)cc4)nccc3c2C)c1` [Compound 35, 2-(3-methoxyphenyl)-3-methyl-N-[4-(2-methyl-5-oxazolyl)phenyl]-2H-pyrazolo[3,4-c]pyridin-7-amine] had a melting point of 185 °C. Besides, the half-maximal inhibitory concentration (IC50) in the series on Aβ42 [1] turned out to be 166 nM. In the series on Aβtotal [2], this compound returned a 50% inhibitory concentration (IC50) of more than 10000 nM. Besides, half-maximal inhibition in the series on Aβ42 [3] (IC50) was put at 382 nM. Besides, in the series with Aβtotal [4], the IC50 was more than 3000 nM.
In the same order, the values of `Cc1ncc(-c2ccc(Nc3cccc4c(C#N)n(-c5ccc(F)cc5)nc34)cc2)o1` [Compound 32, 2-(4-fluorophenyl)-7-[[4-(2-methyl-5-oxazolyl)phenyl]amino]-2H-indazole-3-carbonitrile] are 237.9 °C, more than 3000 nM, more than 3000 nM, 2130 nM and more than 3000 nM.
In turn, `Cc1ncc(-c2ccc(Nc3cccc4c(CN)n(-c5ccc(F)cc5)nc34)cc2)o1` [Compound 8, 2-(4-fluorophenyl)-7-[[4-(2-methyl-5-oxazolyl)phenyl]amino]-2H-indazole-3-methanamine] showed a melting point of 137 °C. The same compound displayed a 50% inhibitory concentration (IC50) with Aβ42 [1] of 177 nM. The IC50 with Aβtotal [2] is more than 10000 nM. In addition, in the series on Aβ42 [3], inhibition was half-maximal at 180 nM (IC50). Besides, the IC50 with Aβtotal [4] was more than 10000 nM.
As to `COc1cccc(-n2nc3c(Nc4ccc(-c5cnn(C)c5)c(F)c4)cccc3c2C)c1` [Compound 7, N-[3-fluoro-4-(1-methyl-1H-pyrazol-4-yl)phenyl]-2-(3-methoxyphenyl)-3-methyl-2H-indazol-7-amine], the melting point came out at 239.1 °C. For the same compound, the 50% inhibitory concentration (IC50) in the series with Aβ42 [1] amounted to 55 nM. Also, the IC50 in the series with Aβtotal [2] is more than 10000 nM. In the series with Aβ42 [3], this compound displayed a 50% inhibitory concentration (IC50) of 229 nM. The half-inhibitory concentration (IC50) with Aβtotal [4] is more than 3000 nM.
In the case of `Cc1ncc(-c2ccc(Nc3cccc4cn(CC(F)(F)F)nc34)cn2)o1` [Compound 44, N-[6-(2-methyl-5-oxazolyl)-3-pyridinyl]-2-(2,2,2-trifluoroethyl)-2H-indazol-7-amine], the melting point is 153.4 °C. Besides, the IC50 in the series on Aβ42 [1] stood at 363 nM. Further, the concentration for half-maximal inhibition (IC50) in the series with Aβtotal [2] was more than 10000 nM. This compound also yielded an IC50 in the series with Aβ42 [3] of 513 nM. In the series on Aβtotal [4], this compound displayed an IC50 of more than 3000 nM.
In the case of `COc1cc(Nc2nc(C)cc3cn(CC(F)(F)F)nc23)ccc1-c1cnc(C)o1` [Compound 41, N-[3-methoxy-4-(2-methyl-5-oxazolyl)phenyl]-5-methyl-2-(2,2,2-trifluoroethyl)-2H-pyrazolo[3,4-c]pyridin-7-amine], the melting point worked out at 213.8 °C. In addition, the IC50 in the series on Aβ42 [1] is more than 3000 nM. Further, the IC50 in the series with Aβtotal [2] was more than 3000 nM.
Compound `Cc1ncc(-c2ccc(Nc3cccc4cn(-c5ccc6c(c5)OCO6)nc34)cc2)o1` [Compound 34, 2-(1,3-benzodioxol-5-yl)-N-[4-(2-methyl-5-oxazolyl)phenyl]-2H-indazol-7-amine] gave a melting point of 175 °C. Further, in the series on Aβ42 [1], inhibition was half-maximal at 479 nM (IC50). Besides, the IC50 in the series on Aβtotal [2] was more than 10000 nM. In addition, 359 nM corresponded to half-maximal inhibition in the series on Aβ42 [3] (IC50).
`COc1nc(Nc2cc(C(C)C)nc3cn(CC(F)(F)F)nc23)ccc1-n1cnc(C)c1` [Compound 57, N-[6-methoxy-5-(4-methyl-1H-imidazol-1-yl)-2-pyridinyl]-5-(1-methylethyl)-2-(2,2,2-trifluoroethyl)-2H-pyrazolo[4,3-b]pyridin-7-amine] had a melting point of 172.5 °C. In the series on Aβ42 [1], the concentration for half-maximal inhibition (IC50) turned out to be 107 nM. In addition, the IC50 in the series on Aβtotal [2] was 1660 nM.
As to `Cc1cn(-c2ccc(Nc3cccc4cn(CC(F)(F)F)nc34)cc2F)cn1` [Compound 52, N-[3-fluoro-4-(4-methyl-1H-imidazol-1-yl)phenyl]-2-(2,2,2-trifluoroethyl)-2H-indazol-7-amine], the melting point was 144.9 °C. In addition, the 50% inhibitory concentration (IC50) with Aβ42 [1] worked out at 339 nM. Also, the IC50 in the series with Aβtotal [2] is more than 10000 nM.
The compound `Cc1ncn(-c2ccc(Nc3cccc4c(C)n(CCCC(F)(F)F)nc34)cc2F)n1` [Compound 22, N-[3-fluoro-4-(3-methyl-1H-1,2,4-triazol-1-yl)phenyl]-3-methyl-2-(4,4,4-trifluorobutyl)-2H-indazol-7-amine] gave a melting point of 135.6 °C. Besides, in the series with Aβ42 [1], the half-maximal inhibitory concentration (IC50) was more than 3000 nM. The compound further yielded an IC50 in the series with Aβtotal [2] of more than 3000 nM. Further, in the series with Aβ42 [3], the half-inhibitory concentration (IC50) was more than 3000 nM. In the series with Aβtotal [4], this compound returned a 50% inhibitory concentration (IC50) of more than 3000 nM.
For `COc1cc(Nc2nc(C)cc3cn(CC(F)(F)F)nc23)ccc1-n1cnc(C)n1` [Compound 21, N-[3-methoxy-4-(3-methyl-1H-1,2,4-triazol-1-yl)phenyl]-5-methyl-2-(2,2,2-trifluoroethyl)-2H-pyrazolo[3,4-c]pyridin-7-amine], the melting point came to 203.4 °C. The IC50 in the series with Aβ42 [1] is more than 3000 nM. In the series on Aβtotal [2], this compound had a 50% inhibitory concentration (IC50) of more than 3000 nM.
On to `Cc1ncc(-c2ccc(Nc3cccc4c(C)n(-c5ccc(F)cc5F)nc34)cc2)o1` [Compound 33, 2-(2,4-difluorophenyl)-3-methyl-N-[4-(2-methyl-5-oxazolyl)phenyl]-2H-indazol-7-amine], for which the melting point is 139.9 °C. Besides, the IC50 with Aβ42 [1] worked out at 166 nM. This compound also registered an IC50 with Aβtotal [2] of more than 10000 nM.
The compound `COc1cc(Nc2cccc3c(C)n(-c4ccc(F)cc4)nc23)ccc1-c1cnc(C)o1` [Compound 40, 2-(4-fluorophenyl)-N-[3-methoxy-4-(2-methyl-5-oxazolyl)phenyl]-3-methyl-2H-indazol-7-amine] gave a melting point of 164.4 °C. Also, in the series on Aβ42 [1], half-maximal inhibition (IC50) was put at 32 nM. Also, the IC50 in the series with Aβtotal [2] turned out to be 5500 nM. Half-maximal inhibition in the series on Aβ42 [3] (IC50) required 186 nM. In the series on Aβtotal [4], this compound gave an IC50 of more than 3000 nM.
